What follows are compounds tested on Plasmodium falciparum (assay: GSK_TCMDC: Inhibition of Plasmodium falciparum 3D7 in whole erythrocytes, using parasite LDH activity as an index of growth.). Conditions: Plasmodium falciparum, 3D7.
Type: functional, organism-based
Compound `CCN1CCN(c2cc(C)c3cc(NC(=O)c4ccc(OC)c(OC)c4)ccc3n2)CC1` has an XC50 of 1.03 µM. `CC(=NNC(S)=NC(C)(C)C)c1ccccn1` was tested, and the XC50 was 0.158 µM. Work on `COc1cc(CC2c3cc(O)c(Cl)cc3CCN2C)c(OC)cc1C` (stereo not drawn) yielded an XC50 of 0.713 µM. Compound `CCCCc1ccc(C(=O)Nc2ccc3nc(N4CCN(C)CC4)cc(C)c3c2)cc1` has an XC50 of 1.1 µM. With `O=C(/C=C/c1ccc(Cl)c(Cl)c1)N1CCN(C(=O)Nc2cccc(C(F)(F)F)c2)CC1` the XC50 was 0.704 µM. With `Cc1ccc(-n2nc3ccc(NC(=O)c4ccc([N+](=O)[O-])o4)cc3n2)cc1C` the XC50 was 0.397 µM. Work on `O=C(/C=C/c1ccc(Cl)c(Cl)c1)NCCCCCN1CCC(NC(=O)Nc2cc(Cl)nc(Cl)c2)CC1` yielded an XC50 of 0.976 µM. `COc1ccc(C23Oc4cc(OC)cc(OC)c4C2(O)C2(CC3c3ccccc3)SCCCS2)cc1` (stereo not drawn) was tested, and the XC50 was 0.124 µM. In the case of `CC(C)c1ccc(CN2CCC(NC(=O)c3ccc(-c4ccccc4F)s3)CC2)cc1`, the XC50 is reported as 1.55 µM. Work on `Cc1cccc2nc(-c3ccc(-c4cccc(CNCCc5ccncc5)c4)cc3)[nH]c12` yielded an XC50 of 0.204 µM. In the case of `COCCN(C(=O)Cc1cccs1)C(C(=O)NCc1ccc(OC)cc1)c1ccc(C(C)C)cc1` (stereo not drawn), the XC50 is reported as 0.845 µM. `CCCCCCN1CCCN(Cc2ccc(C(=O)Nc3ccc(C(C)(C)C)cc3)cc2)CC1` showed an XC50 of 0.744 µM. `O=C(NC1CCCCC1)N(Cc1ccc(-c2ccc(CNCc3ccc4c(c3)OCO4)cc2)cc1)C1CCN(Cc2ccccc2)CC1` gave an XC50 of 0.69 µM. Compound `O=C(c1ccc(F)cc1)N1CCOC(CCN2CCC(c3ccccc3)CC2)(c2ccc(Cl)c(Cl)c2)C1` (stereo not drawn) has an XC50 of 0.749 µM. With `CN1CCN(CCCN(Cc2csc(-c3ccc(CNCc4ccccc4)cc3)n2)C(=O)Nc2cc(Cl)cc(Cl)c2)CC1` the XC50 was 0.7 µM. In the case of `COc1ccc(Nc2nccc(-c3ccc4c(-c5ccsc5)cnc(N)c4c3)n2)cc1`, the XC50 is reported as 0.236 µM. For `O=C(Nc1cccc(CN2CCCN(Cc3ncc[nH]3)CC2)c1)c1ccc2ccccc2c1`, the XC50 was 0.632 µM. Work on `O=c1cc(NCCCNCc2cc3c(Cl)cccc3s2)[nH]c2ccccc12` yielded an XC50 of 0.474 µM. `COC(=O)C(Cc1ccccc1)C(CSCc1ccc(OC)cc1)C(=O)N[C@@H](C(=O)OC(C)(C)C)c1ccc(C(C)(C)C)cc1` (stereo partly drawn) gave an XC50 of 1.03 µM. With `CN1CCN(Cc2ccc(-c3ccc4c(Nc5cc(O)c(F)cc5Cl)ccnc4c3)o2)CC1` the XC50 was 0.132 µM. Compound `COc1cc(SC)c(Br)cc1-c1nc2ccncc2[nH]1` has an XC50 of 1.1 µM. In the case of `COc1cc(C(=O)N2CCC(CCN3CCC4(CC3)CN(S(C)(=O)=O)c3ccccc34)CC2Cc2ccc(Cl)c(Cl)c2)cc(OC)c1OC` (stereo not drawn), the XC50 is reported as 0.843 µM. Work on `C=C[C@H]1CN2CC[C@@H]1C[C@H]2[C@H](O)c1cc(-c2ccc(F)cc2)nc2ccc(OC)cc12` yielded an XC50 of 0.169 µM. For `CC(C)Oc1cccc(-c2ccc(C(=O)NCC3CCCN(Cc4cccc(C(F)(F)F)c4)C3)s2)c1` (stereo not drawn), the XC50 was 1.08 µM. Compound `COC(=O)c1cccc(CNCc2cccc(-c3ccc(-c4nc5cccc(C)c5[nH]4)s3)c2)c1` has an XC50 of 0.211 µM. `CN(C)C(=O)n1cnc(S(=O)(=O)N(C)c2ccc(Cl)cc2)n1` showed an XC50 of 0.767 µM. `Cc1noc(C)c1-c1cccc(CNCc2ccc(-c3ccc(-c4nc5cc(F)ccc5[nH]4)s3)cc2)c1` showed an XC50 of 0.423 µM. With `C=C1C(C(=O)OCC)=CN(CC)c2cc(O[C@H]3CCN(C(=O)OC(C)(C)C)C3)ccc21` the XC50 was 0.548 µM. `O=C(Oc1ccc(C2CNCCc3c2cc(OC(=O)c2ccc(O)cc2)c(OC(=O)c2ccc(O)cc2)c3Cl)cc1)c1ccc(O)cc1` (stereo not drawn) showed an XC50 of 0.983 µM. With `CCCCNC(=O)c1[nH]c2c(NC(=O)COc3ccccc3)cccc2c1-c1cccc(NC(=O)C(N)CO)c1` (stereo not drawn) the XC50 was 0.852 µM. With `O=C(Nc1ccc(F)cc1)N1CCCN(c2ccnc3cc(Cl)ccc23)CC1` the XC50 was 0.785 µM. With `CC(NCCC1CCC(NC(=O)N[C@H](C)C(O)(c2ccccc2)c2ccccc2)CC1)c1cccc2ccccc12` (stereo partly drawn) the XC50 was 1.1 µM. `CC(=O)c1c(Cc2ccccc2Cl)c[nH]c1C` showed an XC50 of 0.848 µM. `CS(=O)(=O)c1cccc(-c2cnc3[nH]cc(-c4ccc(C(=O)O)cc4)c3c2)c1` showed an XC50 of 0.335 µM. `O=C(Cn1c(SCc2cccc(F)c2F)cc(=O)c2ccccc21)N(CCCn1ccnc1)Cc1ccc(-c2ccc(C(F)(F)F)cc2)cc1` showed an XC50 of 1.32 µM. Compound `CC(C)C[C@H](NC(=O)c1ccc(OCCN2CCOCC2)cc1)C(=O)N[C@H](/C=N/N1CCNC1=O)CCc1ccccc1` has an XC50 of 0.365 µM. `O=C(Nc1cccc(CN2CCN(Cc3ccc(O)cc3)CC2)c1)c1ccc(-c2ccccc2)cc1` showed an XC50 of 0.245 µM. With `O=C(Nc1ccc(OC2CCN(Cc3ccsc3)C2)c(Cl)c1)c1ccco1` (stereo not drawn) the XC50 was 0.602 µM. In the case of `N#Cc1ccc(C=NNc2nc3ccccc3[nH]2)cc1`, the XC50 is reported as 1 µM. Compound `Cc1cccc(Cl)c1S(=O)(=O)N1CCCCC(c2ccc(C(F)(F)F)cc2)=N1` has an XC50 of 0.216 µM. With `O=C(Cn1c(SCc2cccc(F)c2F)cc(=O)c2ccccc21)N(CCc1c[nH]cn1)Cc1ccc(-c2ccc(C(F)(F)F)cc2)cc1` the XC50 was 0.801 µM. `COC(=O)c1ccc(-c2ccc(-c3cccnc3)cc2C)cc1` was tested, and the XC50 was 0.662 µM. `CC(C)[C@H]1CC[C@H](C)C[C@@H]1OC(=O)N[C@@H](Cc1ccc(O)cc1)C(=O)NC1CCN(Cc2ccc(OCCCN(C)C)cc2)C1` (stereo partly drawn) was tested, and the XC50 was 0.764 µM. For `Cc1ccc(OCC2CCN(c3ncc(C(=O)NCCCN4CCCC4=O)cc3Cl)CC2)cc1`, the XC50 was 1.26 µM. Work on `O=C(Nc1ccc(Br)cc1)N(CCN1CCOCC1)CC(O)COCc1ccc(Cl)c(Cl)c1` (stereo not drawn) yielded an XC50 of 0.929 µM. With `Nc1c2c(nc3ccc(Oc4ccc(Cl)cc4)cc13)CCCC2` the XC50 was 0.972 µM. For `COc1ccc(NC(=O)CSc2nc(-c3ccccc3Cl)ns2)cc1`, the XC50 was 1.04 µM. `N#Cc1cccc(NC(=O)Nc2ccc(-c3ccc(-c4nc5cc(C(F)(F)F)ccc5[nH]4)cc3)cc2)c1` showed an XC50 of 0.145 µM.

— ChEMBL document CHEMBL1157539, “Thousands of chemical starting points for antimalarial lead identification” (Nature, 2010)
